Test results from patent US7772245B2, “Inhibitors of histone deacetylase” (Miikana Therapeutics, Inc., priority 2005, dated 2010).

How the values were obtained:
[1] = system: HDAC; test: In vitro fluorescent histone deacetylase assay (Biomol HDAC fluorescent activity kit, HeLa cell nuclear extract); assay type: biochemical; conditions: 100 μM compound; HeLa cell nuclear extract as source of HDAC activity; 50 μM substrate, 10 min at room temperature
Description: Histone deacetylase (HDAC) activity assays were performed using the HDAC fluorescent activity assay/drug discovery kit (Biomol Research Laboratories, Plymouth Meeting, Pa.) essentially according to the manufacturer's instructions. The included HeLa cell nuclear extract, which contains a mosaic of HDAC enzymes and other nuclear factors, was used as the source of HDAC activity. The final substrate concentration in the assay mixture was 50 μM. The reaction was allowed to proceed for 10 min at room temperature before stopping the reaction. Test compounds were prepared as 20 mM stock solutions in DMSO (Molecular Biology grade, Sigma-Aldrich Co., St. Louis, Mo.) and stored at −70° C. Serial dilutions of test compounds were prepared in assay buffer immediately prior to testing. DMSO was determined in a separate trial to have no significant effect on the activity of this assay at concentrations up to 5%; the final DMSO concentration in the wells was no more than 2% and therefore DMSO effects were safely neglected. Assays were performed in white polystyrene 96-well half-area assay plates (Corning, Corning, N.Y.) and measured on a Wallace 1420 fluorescent plate reader (Wallac Oy, Turku, Finland) with an excitation wavelength of 355 nm, an emission wavelength of 460 nm, and a 1 sec signal averaging time.

[2] = system: HCT116 cells; test: Whole cell cytotoxicity assay: Sulforhodamine B; assay type: cell-based; conditions: Homo sapiens, HCT-116; 100 μM compound; 48 hours incubation with drug; Sulforhodamine B staining; read-out: % Inhibition of HCT116 cell growth @ 100 μM
Description: [The source words this procedure for another cell line and reports this cell line under the same test.] The following procedure can be found on the Developmental Therapeutics Program NCl/NIH web site at http://dtp.nci.nih.gov/brancehes/btb/ivclsp.html. • 1. Human tumor cell lines of HT29, A549 and MCF7 are grown in DMEM containing 10% fetal bovine serum and 2 mM L-glutamine. Cells are plated in a 96 well plate at a density of 5000 cells per well in 100 μL of growth medium and incubated at 37° C., 5% CO2, for 24 hours prior to the addition of experimental compounds. • 2. Experimental drugs are solubilized in DMSO for a final concentration of 20 mM immediately prior to use. Drugs are further diluted in growth media for a total of nine drug concentrations and a growth control. At the 24 hour time point, one plate of cells is fixed in situ with TCA as a measurement of the cell population at time zero, or the time of drug addition. • 3. The plates are further incubated with drug for an additional 48 hours. • 4. The cells are fixed in situ by gently aspirating off the culture media and then adding 50 μL of ice cold 10% TCA per well and incubated at 4° C. for 60 minutes. The plates are washed with tap water five times and allowed to air dry for 5 minute. • 5. 50 μL of a 0.4% (w/v) Sulforhodamine B solution in 1% (v/v) acetic acid is added per well and incubated for 30 minutes at room temperature. • 6. Following staining, plates are washed five times with 1% acetic acid to remove any unbound dye and then allowed to air dry for 5 minutes. • 7. Stain is solubilized with 100 μL of 10 mM Tris pH 10.5 per well and placed on an orbital rotator for 5 minutes. • 8. Absorbance is read at 570 nm.

Compound | % Inhibition of HDAC @ 100 μM [1] | inhibition at 100 µM [2]
O=C(/C=C/c1ccc(CN2CCc3c([nH]c4ccccc34)C2)s1)NO [Example 3, (2E)-N-hydroxy-3-[5-(1,3,4,9-tetrahydro-2H-b-carbolin-2-ylmethyl)thien-2-yl]acrylamide] | 97.9% | 98.3%
O=C(NO)c1ccc(N2CCc3c([nH]c4ccccc34)C2)nc1 [Example 4, N-hydroxy-6-(1,3,4,9-tetrahydro-2H-b-carbolin-2-yl)nicotinamide] | – | 98.5%
COc1cc2c(cc1OC)CN(c1ccc(C(=O)NO)cn1)CC2 [Example 5, 6-(6,7-dimethoxy-3,4-dihydroisoquinolin-2(1H)-yl)-N-hydroxynicotinamide] | 99.7% | 99.9%
O=C(NO)c1cnc(N2CCc3c([nH]c4ccccc34)C2)nc1 [Example 9, N-hydroxy-2-(1,3,4,9-tetrahydro-2H-b-carbolin-2-yl)pyrimidine-5-carboxamide] | 99.9% | 99.3%
COc1ccc2[nH]c3c(c2c1)CCN(c1ncc(C(=O)NO)cn1)C3 [Example 10, N-hydroxy-2-(6-methoxy-1,3,4,9-tetrahydro-2H-b-carbolin-2-yl)pyrimidine-5-carboxamide] | 99.5% | 98.4%
COc1cc2c(cc1OC)CN(c1ncc(C(=O)NO)cn1)CC2 [Example 11, 2-(6,7-dimethoxy-3,4-dihydroisoquinolin-2(1H)-yl)-N-hydroxypyrimidine-5-carboxamide] | 99.8% | 99%
O=C(NO)c1cnc(N2CCc3[nH]c4ccccc4c3C2)nc1 [Example 12, N-hydroxy-2-(1,3,4,5-tetrahydro-2H-pyrido[4,3-b]indol-2-yl)pyrimidine-5-carboxamide] | 99.9% | 98.7%
Cc1ccc2[nH]c3c(c2c1)CN(c1ncc(C(=O)NO)cn1)CC3 [Example 13, N-hydroxy-2-(8-methyl-1,3,4,5-tetrahydro-2H-pyrido[4,3-b]indol-2-yl)pyrimidine-5-carboxamide] | 99.9% | 99.1%
O=C(NO)c1cnc(N2CCc3[nH]c4ccc(Cl)cc4c3C2)nc1 [Example 14, 2-(8-chloro-1,3,4,5-tetrahydro-2H-pyrido[4,3-b]indol-2-yl)-N-hydroxypyrimidine-5-carboxamide] | 99.9% | 98.1%
O=C(NO)c1cnc(N2CCc3[nH]c4ccc(Br)cc4c3C2)nc1 [Example 15, 2-(8-bromo-1,3,4,5-tetrahydro-2H-pyrido[4,3-b]indol-2-yl)-N-hydroxypyrimidine-5-carboxamide] | 99.8% | 99%
O=C(NO)c1cnc(N2CCc3[nH]c4ccc(OC(F)(F)F)cc4c3C2)nc1 [Example 16, N-hydroxy-2-[8-(trifluoromethoxy)-1,3,4,5-tetrahydro-2H-pyrido[4,3-b]indol-2-yl]pyrimidine-5-carboxamide] | 98.9% | 99%
O=C(NO)c1ccc(N2CCc3c([nH]c4ccccc34)C2)cc1 [Example 18, N-hydroxy-4-(1,3,4,9-tetrahydro-2H-b-carbolin-2-yl)benzamide] | – | 98.5%
O=C(NO)c1cnc(N2CCc3c([nH]c4ccccc34)C2)s1 [Example 19, N-hydroxy-2-(1,3,4,9-tetrahydro-2H-b-carbolin-2-yl)-1,3-thiazole-5-carboxamide] | 97.6% | 97.2%
O=C(/C=C/c1cnc(N2CCc3c([nH]c4ccccc34)C2)nc1)NO [Example 20, (2E)-N-hydroxy-3-[2-(1,3,4,9-tetrahydro-2H-b-carbolin-2-yl)pyrimidin-5-yl]acrylamide] | 99.6% | 98.2%
O=C(CCc1cnc(N2CCc3c([nH]c4ccccc34)C2)nc1)NO [Example 21, N-hydroxy-3-[2-(1,3,4,9-tetrahydro-2H-b-carbolin-2-yl)pyrimidin-5-yl]propanamide] | 98.5% | 94%
O=C(/C=C/c1ccc(N2CCc3c([nH]c4ccccc34)C2)cc1)NO [Example 22, (2E)-N-hydroxy-3-[4-(1,3,4,9-tetrahydro-2H-b-carbolin-2-yl)phenyl]acrylamide] | 98.2% | 98.2%
O=C(NO)c1cnc(N2CCc3c(n(CCN4CCCC4)c4ccccc34)C2)nc1 [Example 23, N-hydroxy-2-{9-[2-pyrrolidin-1-ylethyl]-1,3,4,9-tetrahydro-2H-b-carbolin-2-yl}pyrimidine-5-carboxamide] | 99.3% | 98.1%
O=C(NO)c1cnc(N2CCc3[nH]c4ccc(-c5cccc(C(=O)N6CCCC6)c5)cc4c3C2)nc1 [Example 42, N-hydroxy-2-{8-[3-(pyrrolidin-1-ylcarbonyl)phenyl]-1,3,4,5-tetrahydro-2H-pyrido[4,3-b]indol-2-yl}pyrimidine-5-carboxamide] | – | 88%
O=C(NO)c1cnc(N2CCc3[nH]c4ccc(-c5cccnc5)cc4c3C2)nc1 [Example 47, N-hydroxy-2-{8-(pyridin-3-yl)-1,3,4,5-tetrahydro-2H-pyrido[4,3-b]indol-2-yl}pyrimidine-5-carboxamide] | – | 98.1%
CC(=O)Nc1ccc2[nH]c3c(c2c1)CN(c1ncc(C(=O)NO)cn1)CC3 [Example 77, N-hydroxy-2-(8-(N-acetamido)-1,3,4,5-tetrahydro-2H-pyrido[4,3-b]indol-2-yl)pyrimidine-5-carboxamide] | – | 98.1%
CS(=O)(=O)Nc1cccc(-c2ccc3[nH]c4c(c3c2)CN(c2ncc(C(=O)NO)cn2)CC4)c1 [Example 88, N-hydroxy-2-{8-[3-(N-methylsulfonamido)phenyl]-1,3,4,5-tetrahydro-2H-pyrido[4,3-b]indol-2-yl}pyrimidine-5-carboxamide] | – | 98.4%
CN(C)Cc1cccc(-c2ccc3[nH]c4c(c3c2)CN(c2ncc(C(=O)NO)cn2)CC4)c1 [Example 92, N-hydroxy-2-{8-[3-(N,N-dimethylaminomethyl)phenyl]-1,3,4,5-tetrahydro-2H-pyrido[4,3-b]indol-2-yl}pyrimidine-5-carboxamide] | – | 98.9%
O=C(NO)c1cnc(N2CCc3[nH]c4ccc(-c5ccc(CN6CCCC6)cc5)cc4c3C2)nc1 [Example 103, N-hydroxy-2-{8-[4-(pyrrolidin-1-ylmethyl)phenyl]-1,3,4,5-tetrahydro-2H-pyrido[4,3-b]indol-2-yl}pyrimidine-5-carboxamide] | – | 98.9%
O=C(NO)c1cnc(N2CCc3[nH]c4ccc(-c5ccc(CN6CCSCC6)cc5)cc4c3C2)nc1 [Example 105, N-hydroxy-2-{8-[4-(thiomorpholin-4-ylmethyl)phenyl]-1,3,4,5-tetrahydro-2H-pyrido[4,3-b]indol-2-yl}pyrimidine-5-carboxamide] | – | 97%
O=C(NO)c1cnc(N2CCc3[nH]c4ccc(F)cc4c3C2)nc1 [Example 111, N-hydroxy-2-(8-fluoro-1,3,4,5-tetrahydro-2H-pyrido[4,3-b]indol-2-yl)pyrimidine-5-carboxamide] | – | 97.7%
O=C(NO)c1cnc(N2CCc3[nH]c4ccccc4c3CC2)nc1 [Example 114, N-hydroxy-2-(1,4,5,6-tetrahydroazepino[4,5-b]indol-3(2H)-1-yl)pyrimidine-5-carboxamide] | – | 99.3%
O=C(NO)c1cnc(N2CCc3[nH]c4ccc(F)cc4c3CC2)nc1 [Example 115, N-hydroxy-2-(9-fluoro-1,4,5,6-tetrahydroazepino[4,5-b]indol-3(2H)-1-yl)pyrimidine-5-carboxamide] | – | 98.8%
O=C(NO)c1cnc(N2CCc3[nH]c4cc(-c5cccc(CN6CCCC6)c5)ccc4c3C2)nc1 [Example 121, N-hydroxy-2-{7-[3-(pyrrolidin-1-ylmethyl)phenyl]-1,3,4,5-tetrahydro-2H-pyrido[4,3-b]indol-2-yl}pyrimidine-5-carboxamide] | – | 97.5%
